According to US11802111B2, “Cyclobutyl amide monoacylglycerol lipase modulators” (Janssen Pharmaceutica NV, priority 2020, dated 2023):

target: human MGL from HeLa cells (Homo sapiens (Human), UniProt Q99685); test: MGL in vitro activity assay ([glycerol-1,3-3H]-oleoyl glycerol hydrolysis, activated carbon filtration); type: biochemical; settings: 300 nM [Glycerol-1,3-3H]-oleoyl glycerol, one hour
Outline: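 Endogenous human MGL in HeLa cells/homogenates incubated 1 h with test compounds and 300 nM [glycerol-1,3-3H]-oleoyl glycerol. Released 3H-glycerol passing an activated carbon filter counted as activity; screening at 10 μM compound, top IC50 concentration set empirically.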

Chain of human MGL from HeLa cells (Q99685 whole entry): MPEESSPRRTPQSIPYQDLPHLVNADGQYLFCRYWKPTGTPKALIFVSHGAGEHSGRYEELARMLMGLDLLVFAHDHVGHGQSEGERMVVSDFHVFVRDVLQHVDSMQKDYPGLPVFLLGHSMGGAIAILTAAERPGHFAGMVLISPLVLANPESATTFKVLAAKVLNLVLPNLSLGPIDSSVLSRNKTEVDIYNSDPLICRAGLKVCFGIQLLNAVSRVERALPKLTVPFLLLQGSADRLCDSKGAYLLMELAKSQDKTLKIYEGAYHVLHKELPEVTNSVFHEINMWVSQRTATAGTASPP

Compound	IC50
COC1(c2cc(C)cc(C)c2)CCC2(CC1)CN(C(=O)[C@H]1C[C@@](C)(O)C1)C2 [Example 344, (7-(3,5-Dimethylphenyl)-7-methoxy-2-azaspiro[3.5]nonan-2-yl)((1s,3s)-3-hydroxy-3-methylcyclobutyl)methanone]	0.84 nM
Cn1cnc(-c2cccc(C3CCC4(CC3)CN(C(=O)[C@H]3C[C@@](C)(O)C3)C4)c2)c1 [Example 345, ((1s,3s)-3-Hydroxy-3-methylcyclobutyl)(7-(3-(1-methyl-1H-imidazol-4-yl)phenyl)-2-azaspiro[3.5]nonan-2-yl)methanone]	187 nM
C[C@]1(O)C[C@@H](C(=O)N2CC3(CCC(c4ccc(-n5cccn5)cc4)CC3)C2)C1 [Example 346, (7-(4-(1H-Pyrazol-1-yl)phenyl)-2-azaspiro[3.5]nonan-2-yl)((1s,3s)-3-hydroxy-3-methylcyclobutyl)methanone]	295 nM
C[C@]1(O)C[C@@H](C(=O)N2CC3(CCC(c4cccc(-n5cccn5)c4)CC3)C2)C1 [Example 347, (7-(3-(1H-Pyrazol-1-yl)phenyl)-2-azaspiro[3.5]nonan-2-yl)((1s,3s)-3-hydroxy-3-methylcyclobutyl)methanone]	56 nM
Cc1cc(F)cc(C2CCC3(CC2)CN(C(=O)[C@H]2C[C@@](C)(O)C2)C3)c1 [Example 352, (7-(3-Fluoro-5-methylphenyl)-2-azaspiro[3.5]nonan-2-yl)((1s,3s)-3-hydroxy-3-methylcyclobutyl)methanone]	22 nM
Cc1cc(C2CCC3(CC2)CN(C(=O)[C@H]2C[C@@](C)(O)C2)C3)ccc1F [Example 353, (7-(4-Fluoro-3-methylphenyl)-2-azaspiro[3.5]nonan-2-yl)((1s,3s)-3-hydroxy-3-methylcyclobutyl)methanone]	18 nM
Cc1ccc(F)c(C2CCC3(CC2)CN(C(=O)[C@H]2C[C@@](C)(O)C2)C3)c1 [Example 354, (7-(2-Fluoro-5-methylphenyl)-2-azaspiro[3.5]nonan-2-yl)((1s,3s)-3-hydroxy-3-methylcyclobutyl)methanone]	20 nM
Cc1cccc(C2CCC3(CC2)CN(C(=O)[C@H]2C[C@@](C)(O)C2)C3)c1F [Example 355, (7-(2-Fluoro-3-methylphenyl)-2-azaspiro[3.5]nonan-2-yl)((1s,3s)-3-hydroxy-3-methylcyclobutyl)methanone]	39 nM
Cc1cccc(F)c1C1CCC2(CC1)CN(C(=O)[C@H]1C[C@@](C)(O)C1)C2 [Example 356, (7-(2-Fluoro-6-methylphenyl)-2-azaspiro[3.5]nonan-2-yl)((1s,3s)-3-hydroxy-3-methylcyclobutyl)methanone]	15 nM
Cc1cc(F)ccc1C1CCC2(CC1)CN(C(=O)[C@H]1C[C@@](C)(O)C1)C2 [Example 357, (7-(4-Fluoro-2-methylphenyl)-2-azaspiro[3.5]nonan-2-yl)((1s,3s)-3-hydroxy-3-methylcyclobutyl)methanone]	29 nM
Cc1ccc(F)cc1C1CCC2(CC1)CN(C(=O)[C@H]1C[C@@](C)(O)C1)C2 [Example 358, (7-(5-Fluoro-2-methylphenyl)-2-azaspiro[3.5]nonan-2-yl)((1s,3s)-3-hydroxy-3-methylcyclobutyl)methanone]	29 nM
Cc1c(F)cccc1C1CCC2(CC1)CN(C(=O)[C@H]1C[C@@](C)(O)C1)C2 [Example 359, (7-(3-Fluoro-2-methylphenyl)-2-azaspiro[3.5]nonan-2-yl)((1s,3s)-3-hydroxy-3-methylcyclobutyl)methanone]	18 nM
CCOc1cc(C2CCC3(CC2)CN(C(=O)[C@H]2C[C@@](C)(O)C2)C3)ccc1C [Example 360, (7-(3-Ethoxy-4-methylphenyl)-2-azaspiro[3.5]nonan-2-yl)((1s,3s)-3-hydroxy-3-methylcyclobutyl)methanone]	36 nM
CCOc1cccc(C2CCC3(CC2)CN(C(=O)[C@H]2C[C@@](C)(O)C2)C3)c1C [Example 361, (7-(3-Ethoxy-2-methylphenyl)-2-azaspiro[3.5]nonan-2-yl)((1s,3s)-3-hydroxy-3-methylcyclobutyl)methanone]	1.8 nM
Cc1c(OC(C)C)cccc1C1CCC2(CC1)CN(C(=O)[C@H]1C[C@@](C)(O)C1)C2 [Example 362, ((1s,3s)-3-Hydroxy-3-methylcyclobutyl)(7-(3-isopropoxy-2-methylphenyl)-2-azaspiro[3.5]nonan-2-yl)methanone]	1.5 nM

Further lines, results first:

IC50	Compound
164 nM	COc1ccc(C)c(C2CCC3(CC2)CN(C(=O)[C@H]2C[C@@](C)(O)C2)C3)c1 [Example 363, ((1s,3s)-3-Hydroxy-3-methylcyclobutyl)(7-(5-methoxy-2-methylphenyl)-2-azaspiro[3.5]nonan-2-yl)methanone]
2.9 nM	Cc1c(OC2CC2)cccc1C1CCC2(CC1)CN(C(=O)[C@H]1C[C@@](C)(O)C1)C2 [Example 364, (7-(3-Cyclopropoxy-2-methylphenyl)-2-azaspiro[3.5]nonan-2-yl)((1s,3s)-3-hydroxy-3-methylcyclobutyl)methanone]
22 nM	CCOc1cc(F)cc(C2CCC3(CC2)CN(C(=O)[C@H]2C[C@@](C)(O)C2)C3)c1 [Example 365, (7-(3-Ethoxy-5-fluorophenyl)-2-azaspiro[3.5]nonan-2-yl)((1s,3s)-3-hydroxy-3-methylcyclobutyl)methanone]
50 nM	COc1cccc(C2CCC3(CC2)CN(C(=O)[C@H]2C[C@@](C)(O)C2)C3)c1F [Example 366, (7-(2-Fluoro-3-methoxyphenyl)-2-azaspiro[3.5]nonan-2-yl)((1s,3s)-3-hydroxy-3-methylcyclobutyl)methanone]
40 nM	COc1cccc(C2CCC3(CC2)CN(C(=O)[C@H]2C[C@@](C)(O)C2)C3)c1Cl [Example 367, (7-(2-Chloro-3-methoxyphenyl)-2-azaspiro[3.5]nonan-2-yl)((1s,3s)-3-hydroxy-3-methylcyclobutyl)methanone]
59 nM	COc1cc(F)c(F)c(C2CCC3(CC2)CN(C(=O)[C@H]2C[C@@](C)(O)C2)C3)c1 [Example 368, (7-(2,3-Difluoro-5-methoxyphenyl)-2-azaspiro[3.5]nonan-2-yl)((1s,3s)-3-hydroxy-3-methylcyclobutyl)methanone]
35 nM	COc1cc(F)cc(C2CCC3(CC2)CN(C(=O)[C@H]2C[C@@](C)(O)C2)C3)c1F [Example 369, (7-(2,5-Difluoro-3-methoxyphenyl)-2-azaspiro[3.5]nonan-2-yl)((1s,3s)-3-hydroxy-3-methylcyclobutyl)methanone]
11 nM	COc1cc(C2CCC3(CC2)CN(C(=O)[C@H]2C[C@@](C)(O)C2)C3)cc(F)c1C [Example 370, (7-(3-Fluoro-5-methoxy-4-methylphenyl)-2-azaspiro[3.5]nonan-2-yl)((1s,3s)-3-hydroxy-3-methylcyclobutyl)methanone]
6.4 nM	C[C@]1(O)C[C@@H](C(=O)N2CC3(CCC(c4cccc(C5(C(F)(F)F)CC5)n4)CC3)C2)C1 [Example 371, ((1s,3s)-3-Hydroxy-3-methylcyclobutyl)(7-(6-(1-(trifluoromethyl)cyclopropyl)pyridin-2-yl)-2-azaspiro[3.5]nonan-2-yl)methanone]
5.1 nM	CC1(c2cccc(C3CCC4(CC3)CN(C(=O)[C@H]3C[C@@](C)(O)C3)C4)n2)CC1 [Example 372, ((1s,3s)-3-Hydroxy-3-methylcyclobutyl)(7-(6-(1-methylcyclopropyl)pyridin-2-yl)-2-azaspiro[3.5]nonan-2-yl)methanone]
2.4 nM	Cc1ccc(C2CCC3(CC2)CN(C(=O)[C@H]2C[C@@](C)(O)C2)C3)nc1C(C)C [Example 373, ((1s,3s)-3-Hydroxy-3-methylcyclobutyl)(7-(6-isopropyl-5-methylpyridin-2-yl)-2-azaspiro[3.5]nonan-2-yl)methanone]
9.3 nM	Cc1cc(OC(C)C)nc(C2CCC3(CC2)CN(C(=O)[C@H]2C[C@@](C)(O)C2)C3)c1 [Example 374, ((1s,3s)-3-Hydroxy-3-methylcyclobutyl)(7-(6-isopropoxy-4-methylpyridin-2-yl)-2-azaspiro[3.5]nonan-2-yl)methanone]
231 nM	COc1cc(C)nc(C2CCC3(CC2)CN(C(=O)[C@H]2C[C@@](C)(O)C2)C3)c1 [Example 375, ((1s,3s)-3-Hydroxy-3-methylcyclobutyl)(7-(4-methoxy-6-methylpyridin-2-yl)-2-azaspiro[3.5]nonan-2-yl)methanone]
17 nM	Cc1c(C2CCC3(CC2)CN(C(=O)[C@H]2C[C@@](C)(O)C2)C3)ccnc1OC(C)C [Example 376, ((1s,3s)-3-Hydroxy-3-methylcyclobutyl)(7-(2-isopropoxy-3-methylpyridin-4-yl)-2-azaspiro[3.5]nonan-2-yl)methanone]
82 nM	CC(C)(C)c1cncc(C2CCC3(CC2)CN(C(=O)[C@H]2C[C@@](C)(O)C2)C3)n1 [Example 377, (7-(6-(tert-Butyl)pyrazin-2-yl)-2-azaspiro[3.5]nonan-2-yl)((1s,3s)-3-hydroxy-3-methylcyclobutyl)methanone]
37 nM	CC(C)(C)c1ccnc(C2CCC3(CC2)CN(C(=O)[C@H]2C[C@@](C)(O)C2)C3)n1 [Example 378, (7-(4-(tert-Butyl)pyrimidin-2-yl)-2-azaspiro[3.5]nonan-2-yl)((1s,3s)-3-hydroxy-3-methylcyclobutyl)methanone]
56 nM	CC(C)(C)n1ccc(C2CCC3(CC2)CN(C(=O)[C@H]2C[C@@](C)(O)C2)C3)n1 [Example 379, (7-(1-(tert-Butyl)-1H-pyrazol-3-yl)-2-azaspiro[3.5]nonan-2-yl)((1s,3s)-3-hydroxy-3-methylcyclobutyl)methanone]
23 nM	C[C@]1(O)C[C@@H](C(=O)N2CC3(CCC(c4ccn(-c5ccccc5)n4)CC3)C2)C1 [Example 380, ((1s,3s)-3-Hydroxy-3-methylcyclobutyl)(7-(1-phenyl-1H-pyrazol-3-yl)-2-azaspiro[3.5]nonan-2-yl)methanone]
1390 nM	CC(C)(C)n1cnc(C2CCC3(CC2)CN(C(=O)[C@H]2C[C@@](C)(O)C2)C3)c1 [Example 381, (7-(1-(tert-Butyl)-1H-imidazol-4-yl)-2-azaspiro[3.5]nonan-2-yl)((1s,3s)-3-hydroxy-3-methylcyclobutyl)methanone]
